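Test compounds were applied to cells in 96-well plates for 48 hours at 5 doses. GI50: concentration for 50% inhibition of growth.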 Activity calls are given as the source filed them. Rule as the data show it: active = GI50 up to about 1.1 µM and inactive = higher. Numbered stars: 1 amine (or outer) side, 2 acyl side, 3 side chain; on linkers, the order of the positions; unused ones are H or OH. Bridge positions count the residues as written; N and C are the ends. Square brackets hold non-standard residues; d marks the D form. Peptide text beside a SMILES is read from it. I, II: the chains in the order shown. Actinocin(9to1) = Cc1c2oc3c(C)ccc(C(=O)[*:1])c3nc-2c(C(=O)[*:2])c(N)c1=O; NMeH = CN[CH](Cc1c[nH]cn1)C(=O)O; Sar = CNCC(=O)O
Tests used:
Assay in all cases: inhibition of tumour cell growth, NCI panel, 48 h
786-0 = system: 786-0
SK-MEL-2 = system: SK-MEL-2
HL-60 = system: HL-60
MDA-MB-231 = system: MDA-MB-231
OVCAR-3 = system: OVCAR-3
UO-31 = system: UO-31
A549 = system: A549
SNB-75 = system: SNB-75
KM12 = system: KM12
NCI/ADR-RES = system: NCI/ADR-RES
SN12C = system: SN12C
K562 = system: K562
RXF 393 = system: RXF 393
CCRF-CEM = system: CCRF-CEM
NCI-H522 = system: NCI-H522
SF-295 = system: SF-295
A498 = system: A498
MCF7 = system: MCF7
SK-MEL-28 = system: SK-MEL-28
BT-549 = system: BT-549

Structure (SMILES)	GI50 (786-0)	GI50 (SK-MEL-2)	GI50 (HL-60)	GI50 (MDA-MB-231)	GI50 (OVCAR-3)	GI50 (UO-31)	GI50 (A549)	GI50 (SNB-75)	GI50 (KM12)	GI50 (NCI/ADR-RES)	GI50 (SN12C)	GI50 (K562)	GI50 (RXF 393)	GI50 (CCRF-CEM)	GI50 (NCI-H522)	GI50 (SF-295)	GI50 (A498)	GI50 (MCF7)	GI50 (SK-MEL-28)	GI50 (BT-549)
O=C1C[C@H](Sc2ccccc2)C2(OCCO2)[C@H]2ON3CCC[C@@H]3[C@@H]12	1.21 µM (inactive)	3.75 µM (inactive)	1.06 µM (active)	3.33 µM (inactive)	0.904 µM (active)	1.58 µM (inactive)	2.89 µM (inactive)	3.66 µM (inactive)	1.36 µM (inactive)	4.61 µM (inactive)	1.69 µM (inactive)	1.71 µM (inactive)	1.69 µM (inactive)	0.127 µM (active)	0.321 µM (active)	3.79 µM (inactive)	13.2 µM (inactive)	1.12 µM (inactive)	2.49 µM (inactive)	4.56 µM (inactive)
CC(C)(C)c1cc(C(=O)/C=C/c2ccc(O)c(O)c2O)cc(C(C)(C)C)c1O	4.43 µM (inactive)	4.41 µM (inactive)	1.77 µM (inactive)	12 µM (inactive)	3.52 µM (inactive)	2.67 µM (inactive)	5.06 µM (inactive)	1.95 µM (inactive)	2.58 µM (inactive)	1.69 µM (inactive)	2.8 µM (inactive)	2.81 µM (inactive)	2.84 µM (inactive)	1.73 µM (inactive)	1.08 µM (active)	5.41 µM (inactive)	14 µM (inactive)	4.6 µM (inactive)	5.01 µM (inactive)	7.4 µM (inactive)
O=C1c2ccccc2C(=O)N1[C@@H](Cc1ccccc1)C(=O)n1cccc1CO	> 100 µM (inactive)	> 100 µM (inactive)	> 100 µM (inactive)	> 100 µM (inactive)	> 100 µM (inactive)	> 100 µM (inactive)	> 100 µM (inactive)	> 100 µM (inactive)	> 100 µM (inactive)	> 100 µM (inactive)	> 100 µM (inactive)	> 100 µM (inactive)	1.02 µM (active)	> 100 µM (inactive)	> 100 µM (inactive)	> 100 µM (inactive)	> 100 µM (inactive)	> 100 µM (inactive)	> 100 µM (inactive)	> 100 µM (inactive)
CO/C(N)=C(C#N)/N=C/c1ccccc1	> 100 µM (inactive)	> 100 µM (inactive)	35.7 µM (inactive)	> 100 µM (inactive)	> 100 µM (inactive)	89.5 µM (inactive)	> 100 µM (inactive)	> 100 µM (inactive)	> 100 µM (inactive)	> 100 µM (inactive)	> 100 µM (inactive)	58.6 µM (inactive)	> 100 µM (inactive)	50 µM (inactive)	> 100 µM (inactive)	> 100 µM (inactive)	> 100 µM (inactive)	31.8 µM (inactive)	> 100 µM (inactive)	> 100 µM (inactive)
O=C1/C(=N\NC(=S)NC2CCCCC2)c2cc([N+](=O)[O-])ccc2N1CN1CCOCC1	5.52 µM (inactive)	11.7 µM (inactive)	3.32 µM (inactive)	15.8 µM (inactive)	5.86 µM (inactive)	6.31 µM (inactive)	4.05 µM (inactive)	11.5 µM (inactive)	4.81 µM (inactive)	3.26 µM (inactive)	3.72 µM (inactive)	3.61 µM (inactive)	12.4 µM (inactive)	0.382 µM (active)	10 µM (inactive)	3.67 µM (inactive)	4.8 µM (inactive)	4.06 µM (inactive)	10.9 µM (inactive)	4.86 µM (inactive)
CC(=O)O[C@H]1C(=O)[C@@]2(C)[C@H]([C@H](OC(=O)c3cccc([N+](=O)[O-])c3)[C@]3(O)C[C@H](OC(=O)[C@H](O)[C@@H](NC(=O)c4ccccc4)c4ccccc4)C(C)=C1C3(C)C)[C@]1(OC(C)=O)CO[C@@H]1C[C@@H]2O	0.0159 µM (active)	0.0126 µM (active)	< 0.0025 µM (active)	0.0122 µM (active)	< 0.0025 µM (active)	0.568 µM (active)	0.014 µM (active)	0.00759 µM (active)	0.0047 µM (active)	5.52 µM (inactive)	0.00695 µM (active)	0.00482 µM (active)	0.0133 µM (active)	0.00479 µM (active)	0.00362 µM (active)	0.0155 µM (active)	0.005 µM (active)	0.00423 µM (active)	0.0157 µM (active)	0.0376 µM (active)
Cc1c2oc3c(C)ccc(C(=O)NC4C(=O)NC(C(C)C)C(=O)N5CCCC5C(=O)N(C)CC(=O)N(C)C(Cc5cnc[nH]5)C(=O)OC4C)c3nc-2c(C(=O)NC2C(=O)NC(C(C)C)C(=O)N3CCCC3C(=O)N(C)CC(=O)N(C)C(Cc3cnc[nH]3)C(=O)OC2C)c(N)c1=O (stereo not given) (I: TVP[Sar][NMeH] / II: TVP[Sar][NMeH]; ester I:1-I:C, II:1-II:C; linker I:N-II:N via Actinocin(9to1); configuration not given here)	45.6 µM (inactive)	26.3 µM (inactive)	63.7 µM (inactive)	> 100 µM (inactive)	> 100 µM (inactive)	46.8 µM (inactive)	61.9 µM (inactive)	66.8 µM (inactive)	62.1 µM (inactive)	> 100 µM (inactive)	57 µM (inactive)	39.4 µM (inactive)	14.7 µM (inactive)	59 µM (inactive)	16.8 µM (inactive)	45.6 µM (inactive)	> 10 µM (inactive)	30.4 µM (inactive)	39.4 µM (inactive)	> 100 µM (inactive)

— ChEMBL document CHEMBL1201862, “PubChem BioAssay data set” (2004)
